Results on 35 molecules are retold here after patent publication US20220298135A1, “5-HETEROARYL-PYRIDIN-2-AMINE COMPOUNDS AS NEUROPEPTIDE FF RECEPTOR ANTAGONISTS” (Domain Therapeutics, priority 2019, published 2022).

One may read the pIC50 as the negative decadic logarithm of the IC50, by convention in mol/L. Low values mean a high IC50, high ones a low IC50. One may read the melting point as the temperature of the solid-liquid transition.

pIC50: −log10 of the molar value.

Data set [1] concerns the target T1, human NPFFR1 (hNPFFR1) receptor (Homo sapiens, UniProt Q9GZQ6).
T1 construct: expressed in transfected cells; host or cells: HEK-293 T cells, transient co-transfection with polyethylenimine
In words: Human NPFFR1 evaluation using BRET biosensors (antagonist IC50). The conditions noted are these: hNPFFR1 transiently over-expressed in HEK-293 T cells; BRET signal; stimulation by EC80 RFRP-3. The format is cell-based. In a few lines:
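HEK-293T cells co-transfected with receptor, GαoB and Gi-effector BRET biosensor pair, assayed 48 h later. Compound 10 min, then EC80 RFRP-3 with 10 min luminescence read; IC50 from 20-concentration variable-slope fit, duplicate, two independent experiments.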
In general terms: BRET reads energy transfer from a luciferase to a nearby fluorophore.

T1 sequence (Q9GZQ6 whole entry): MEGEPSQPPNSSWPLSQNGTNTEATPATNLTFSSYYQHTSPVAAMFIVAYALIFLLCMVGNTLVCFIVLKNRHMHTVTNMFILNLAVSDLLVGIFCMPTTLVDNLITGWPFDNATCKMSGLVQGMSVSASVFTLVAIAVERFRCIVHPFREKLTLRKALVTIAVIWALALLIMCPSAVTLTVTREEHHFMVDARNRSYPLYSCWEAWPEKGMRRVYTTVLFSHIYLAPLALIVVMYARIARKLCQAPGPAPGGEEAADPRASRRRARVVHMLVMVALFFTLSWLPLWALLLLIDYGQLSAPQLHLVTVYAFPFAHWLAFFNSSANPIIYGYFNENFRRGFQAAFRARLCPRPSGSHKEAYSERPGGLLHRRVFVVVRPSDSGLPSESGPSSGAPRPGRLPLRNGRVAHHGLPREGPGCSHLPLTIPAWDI

Turning to `CCc1nc(N)ccc1-c1cccc2ccc(C(=O)NC3CCOCC3)nc12.Cl` [Example 173, 8-(6-amino-2-ethylpyridin-3-yl)-N-(tetrahydro-2H-pyran-4-yl)quinoline-2-carboxamide], the melting point fell in the range of 112 to 125 °C. The molecule also showed a pIC50 in data set [1] greater than 7.00.

As to `Cl.Nc1ccc(-c2c(F)ccc3cccnc23)c(CCCC(F)(F)F)n1` [Example 71, 5-(7-fluoroquinolin-8-yl)-6-(4,4,4-trifluorobutyl)pyridin-2-amine], the melting point was in the range of 70 to 130 °C. Further, the pIC50 in data set [1] was greater than 7.00.

`CCc1nc(N)ccc1-c1ccccc1-c1ccc(OC)nc1` [Example 89, 6-ethyl-5-(2-(6-methoxypyridin-3-yl)phenyl)pyridin-2-amine] displayed a melting point of 165 to 180 °C. This molecule had a pIC50 in data set [1] of 6.00 to 7.00.

`CCc1nc(N)ccc1-c1ccc(C(F)(F)F)c2cccnc12.Cl` [Example 75, 6-ethyl-5-(5-(trifluoromethyl)quinolin-8-yl)pyridin-2-amine] gave a melting point of 120 to 137 °C. In addition, the pIC50 in data set [1] is less than 6.00.

`CCc1nc(N)ccc1-c1cccc2ccc(C(=O)N3CCCOCC3)nc12.Cl` [Example 167, (8-(6-amino-2-ethylpyridin-3-yl)quinolin-2-yl)(1,4-oxazepan-4-yl)methanone] had a melting point of 120 to 131 °C. Further, in data set [1], the pIC50 was greater than 7.00.

`CCc1nc(N)ccc1-c1c(F)ccc2ccc(N3CCOCC3)nc12.Cl` [Example 135, 6-ethyl-5-(7-fluoro-2-morpholinoquinolin-8-yl)pyridin-2-amine] showed a melting point of 100 to 146 °C. This molecule gave a pIC50 in data set [1] greater than 7.00.

For the molecule `Cl.Nc1ccc(-c2cccc3cc(F)cnc23)c(N)n1` [Example 58, 3-(3-fluoroquinolin-8-yl)pyridine-2,6-diamine], the melting point lay in the range of 114 to 116 °C. The molecule further had a pIC50 in data set [1] greater than 7.00.

Regarding `CCc1nc(N)ccc1-c1csc2ccccc12` [Example 4, 5-Benzo[b]thiophen-3-yl-6-ethyl-pyridin-2-ylamine], the melting point was 108 to 120 °C. In data set [1], this molecule showed a pIC50 of 6.00 to 7.00.

Molecule `CCc1nc(N)ccc1-c1cccc2ccc(C(=O)N3CCOCC3)nc12.Cl` [Example 166, (8-(6-amino-2-ethylpyridin-3-yl)quinolin-2-yl)(morpholino)methanone] had a melting point of 130 to 135 °C. In data set [1], this molecule gave a pIC50 greater than 7.00.

Molecule `Cl.Cn1nccc1-c1ccccc1-c1ccc(N)nc1N` [Example 48, 3-(2-(1-methyl-1H-pyrazol-5-yl)phenyl)pyridine-2,6-diamine] gave a melting point greater than 250 °C. Besides, the pIC50 in data set [1] is less than 6.00.

Consider `Nc1ccc(-c2cccc3cnccc23)c(N)n1` [Example 33, 3-(5-Isoquinolyl)pyridine-2,6-diamine], for which the melting point is greater than 250 °C. Further, the pIC50 in data set [1] is 6.00 to 7.00.

As to `Cl.Nc1ccc(-c2c(F)c(F)cc3ccc(O)nc23)c(N)n1` [Example 64, 8-(2,6-diaminopyridin-3-yl)-6,7-difluoroquinolin-2-ol], the melting point is greater than 250 °C. In data set [1], this molecule showed a pIC50 greater than 7.00.

Regarding `CCc1nc(N)ccc1-c1cccc2cc3c(nc12)CCN(C)C3.Cl.Cl` [Example 114, 6-ethyl-5-(2-methyl-1,2,3,4-tetrahydrobenzo[b][1,6]naphthyridin-6-yl)pyridin-2-amine], the melting point was 197 to 211 °C. Also, the pIC50 in data set [1] is 6.00 to 7.00.

As for `CCc1nc(N)ccc1-c1cccc2ccc(N3CCCC3)nc12.Cl` [Example 131, 6-ethyl-5-(2-(pyrrolidin-1-yl)quinolin-8-yl)pyridin-2-amine], the melting point is greater than 250 °C. The molecule also gave a pIC50 in data set [1] of 6.00 to 7.00.

`Cl.Nc1ccc(-c2c(F)ccc3ccc(O)nc23)c(N)n1` [Example 62, 8-(2,6-diaminopyridin-3-yl)-7-fluoroquinolin-2-ol] yielded a melting point of 210 to 230 °C. This molecule also gave a pIC50 in data set [1] greater than 7.00.

The molecule `Cc1ccc2ccc(F)c(-c3ccc(N)nc3N)c2n1.Cl` [Example 23, 3-(7-fluoro-2-methylquinolin-8-yl)pyridine-2,6-diamine] had a melting point of 130 to 170 °C. In data set [1], this molecule had a pIC50 greater than 7.00.

Turning to `Cl.Nc1ccc(-c2cccc3[nH]ccc23)c(N)n1` [Example 24, 3-(1H-Indol-4-yl)pyridine-2,6-diamine], the melting point is 150 to 154 °C. In data set [1], this molecule had a pIC50 of 6.00 to 7.00.

The molecule `CCc1nc(N)ccc1-c1c(F)ccc2ccc(N3CCCOCC3)nc12.Cl` [Example 134, 6-ethyl-5-(7-fluoro-2-(1,4-oxazepan-4-yl)quinolin-8-yl)pyridin-2-amine] had a melting point of 100 to 150 °C. Moreover, in data set [1], the pIC50 was greater than 7.00.

The molecule `CCc1nc(N)ccc1-c1cccc2cc(C)cnc12.Cl` [Example 95, 6-ethyl-5-(3-methylquinolin-8-yl)pyridin-2-amine] returned a melting point greater than 250 °C. This molecule also gave a pIC50 in data set [1] greater than 7.00.

Take `CCc1nc(N)ccc1-c1csc2ccc(C)cc12.Cl` [Example 42, 6-Ethyl-5-(5-methylbenzothiophen-3-yl)pyridin-2-amine]: the melting point is 64 to 88 °C. The same molecule gave a pIC50 in data set [1] of 6.00 to 7.00.

Molecule `CC(C)c1nc(N)ccc1-c1csc2ccccc12.Cl` [Example 10, 5-Benzo[b]thiophen-3-yl-6-isopropyl-pyridin-2-ylamine] displayed a melting point greater than 250 °C. This molecule also had a pIC50 in data set [1] of 6.00 to 7.00.

Take `Nc1ccc(-c2coc3ccccc23)c(N)n1` [Example 20, 3-(Benzofuran-3-yl)pyridine-2,6-diamine]: the melting point was in the range of 109 to 112 °C. Moreover, in data set [1], the pIC50 is 6.00 to 7.00.

On to `Cc1nc(N)ccc1-c1cccc2cccnc12.Cl` [Example 3, 6-Methyl-5-quinolin-8-yl-pyridin-2-ylamine], for which the melting point was greater than 250 °C. In data set [1], this molecule had a pIC50 of 6.00 to 7.00.

The molecule `CCCc1nc(N)ccc1-c1cccc2ccncc12.Cl` [Example 9, 5-(8-Isoquinolyl)-6-propyl-pyridin-2-amine] showed a melting point of 100 to 117 °C. Besides, in data set [1], the pIC50 was greater than 7.00.

In turn, `CCc1nc(N)ccc1-c1cccc2ccc(COC)nc12.Cl` [Example 142, 6-ethyl-5-(2-(methoxymethyl)quinolin-8-yl)pyridin-2-amine] registered a melting point of 210 to 225 °C. Moreover, the pIC50 in data set [1] was greater than 7.00.

In turn, `CCc1nc(N)ccc1-c1cc(C)cc2cccnc12.Cl` [Example 77, 6-ethyl-5-(6-methylquinolin-8-yl)pyridin-2-amine] gave a melting point of 100 to 140 °C. This molecule also had a negative-log IC50 (pIC50) in data set [1] greater than 7.00.

Molecule `Cl.Nc1ccc(-c2ccc(F)c3cccnc23)c(N)n1` [Example 55, 3-(5-fluoroquinolin-8-yl)pyridine-2,6-diamine] came in with a melting point of 73 to 81 °C. Besides, the pIC50 in data set [1] was greater than 7.00.

As for `CCc1nc(N)ccc1-c1c(F)cc(F)c2ccc(=O)[nH]c12.Cl` [Example 159, 8-(6-amino-2-ethylpyridin-3-yl)-5,7-difluoroquinolin-2(1H)-one], the melting point was greater than 250 °C. The molecule further had a pIC50 in data set [1] of 6.00 to 7.00.

In the case of `Cl.Nc1ccc(-c2ccc(C(F)(F)F)c3cccnc23)c(N)n1` [Example 54, 3-(5-(trifluoromethyl)quinolin-8-yl)pyridine-2,6-diamine], the melting point is greater than 250 °C. The same molecule showed a pIC50 in data set [1] of less than 6.00.

For the molecule `Cl.Nc1ccc(-c2cc(F)cc3cccnc23)c(N)n1` [Example 52, 3-(6-fluoroquinolin-8-yl)pyridine-2,6-diamine], the melting point is greater than 250 °C. The molecule further showed a pIC50 in data set [1] greater than 7.00.

Regarding `Nc1ccc(-c2cccc3cc[nH]c23)c(N)n1` [Example 25, 3-(1H-indol-7-yl)pyridine-2,6-diamine], the melting point was in the range of 62 to 70 °C. Moreover, in data set [1], the pIC50 was greater than 7.00.

Consider `CCc1nc(N)ccc1-c1cccc2cccnc12.Cl` [Example 47, 6-ethyl-5-(quinolin-8-yl)pyridin-2-amine], for which the melting point was greater than 250 °C. The pIC50 in data set [1] was greater than 7.00.

For `CC(C)CCc1nc(N)ccc1-c1c(F)ccc2cccnc12.Cl` [Example 73, 5-(7-fluoroquinolin-8-yl)-6-isopentylpyridin-2-amine], the melting point was in the range of 100 to 140 °C. This molecule gave a pIC50 in data set [1] greater than 7.00.

For `CCc1nc(N)ccc1-c1cccc2cc(F)cnc12.Cl` [Example 97, 6-ethyl-5-(3-fluoroquinolin-8-yl)pyridin-2-amine], the melting point was in the range of 210 to 245 °C. In data set [1], this molecule gave a pIC50 greater than 7.00.

`CCc1nc(N)ccc1-c1cccc2ccnn12.Cl` [Example 104, 6-ethyl-5-(pyrazolo[1,5-a]pyridin-7-yl)pyridin-2-amine] showed a melting point of 234 to 243 °C. For the same molecule, the pIC50 in data set [1] was 6.00 to 7.00.
